Measured values published in PMC11881035, “^68Ga-Labeled Glycopeptides as Effective Tools for Liver Function Imaging” (Molecular Pharmaceutics, 2025).
Where two headings read alike, the source gives them in different places. Where a SMILES comes first, the peptide text is derived from it. The star is where a group is joined. X1 = O=C(CCCCc1cn([C@@H]2O[C@H](CO)[C@H](O)[C@H](O)[C@H]2O)nn1)*; NODAGA = O=C(O)CN1CCN(CC(=O)O)CCN(C(CCC(=O)*)C(=O)O)CC1; GABA = NCCCC(=O)O

Experiments:
[1] = complex stability in human blood serum; assay type: in vitro ADME
Procedure: (§1) The ^68Ge/^68Ga generator, devices for analytical HPLC, semipreparative HPLC, mass spectrometry, radio-thin layer chromatography, gamma counter and animal models for biodistribution and imaging studies including the image reconstruction procedures were the same as described before.[22] Stability assays in PBS and human blood serum, protein binding as well as determination of log D values followed established protocols.[25] Binding affinities (IC50) of selected ligands were determined in an isolated receptor-based assay according to a previously published procedure with minor modifications.[22] Dilutions of nonradioactive complexes were made with PBS + 0.1% BSA (10^–5–10^–12 M). Preparation of [^125I]I-Asialoorosomucoid which serves as the radioactive standard ligand has been published recently.[21]

complex stability in PBS = assay type: physicochemical
Procedure: as §1

[2] = protein binding in human serum; assay type: in vitro ADME; conditions: for fraction unbound: human, serum, read-out: protein binding (%) (converted)
Procedure: as §1

log D determination = assay type: physicochemical; conditions: read-out: log D
Procedure: as §1

[3] = biodistribution in healthy BALB/c mice; conditions: mouse, in vivo; for tissue uptake at 10 min: 10 min p.i.; for tissue uptake at 0.5 h: 30 min p.i.; for tissue uptake at 1 h: 60 min p.i.
Procedure: as §1
Animal experiments were performed in accordance with the Austrian animal experiments law (BGBl. I Nr. 114/2012) and the institution’s animal welfare standards as approved by the Austrian Federal Ministry of Education, Science and Research (BMBWF, 2022–0.311.708). Imaging experiments were conducted at Werner Siemens Imaging Center (Tübingen, Germany) according to the German animal welfare act as approved by the local authorities (R5/19 G, R09/21 G).
Figure 2 Biodistribution data (% ID/g) of ^68Ga-labeled NODAGA-GalNAc-NonaLysan, NODAGA-NonaLysan, NODAGA-HexaLysan, and NODAGA-TriLysan in healthy BALB/c mice at 10, 30, and 60 min p.i. (100 pmol, 1 MBq).

ASGR = molecular target: T1, ASGR (Mus musculus, UniProt P24721+P34927); experiment: blocking experiment, coinjection of N-acetylgalactosamine, biodistribution in BALB/c mice; conditions: in vivo, 30 min p.i., 27.7 μmol N-acetylgalactosamine
T1 construct: from tissue; host or cells: liver and other organs of living healthy female BALB/c mice
T1 sequence (P34927 1-284): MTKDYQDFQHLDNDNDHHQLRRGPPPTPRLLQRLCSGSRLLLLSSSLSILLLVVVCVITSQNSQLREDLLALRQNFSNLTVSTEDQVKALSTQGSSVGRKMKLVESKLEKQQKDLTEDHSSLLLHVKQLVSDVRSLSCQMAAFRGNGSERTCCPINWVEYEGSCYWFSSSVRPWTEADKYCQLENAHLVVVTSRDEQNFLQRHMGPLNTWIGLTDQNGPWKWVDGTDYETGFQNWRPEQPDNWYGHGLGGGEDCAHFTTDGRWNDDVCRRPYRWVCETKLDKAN
T1 sequence (P24721 1-301): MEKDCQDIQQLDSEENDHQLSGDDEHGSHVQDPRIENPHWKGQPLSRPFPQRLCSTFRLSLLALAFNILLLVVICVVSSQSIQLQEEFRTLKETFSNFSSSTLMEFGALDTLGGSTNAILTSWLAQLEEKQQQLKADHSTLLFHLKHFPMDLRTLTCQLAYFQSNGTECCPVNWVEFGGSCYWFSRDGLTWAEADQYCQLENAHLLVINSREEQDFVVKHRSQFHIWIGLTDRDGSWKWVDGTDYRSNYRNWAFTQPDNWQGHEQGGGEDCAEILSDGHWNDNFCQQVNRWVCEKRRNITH
Procedure: Less liver uptake was found for [^68Ga]Ga-NODAGA-HexaLysan (55.5 ± 7.4% ID/g, 30 min p.i.) and least for [^68Ga]Ga-NODAGA-TriLysan (9.4 ± 2.0% ID/g, 30 min p.i.). […] However, an increasing activity accumulation in the intestine was found for [^68Ga]Ga-NODAGA-NonaLysan, [^68Ga]Ga-NODAGA-GalNAc-Nonalysan, and [^68Ga]Ga-NODAGA-HexaLysan over time. Nevertheless, liver-to-organ ratios were highest for [^68Ga]Ga-NODAGA-NonaLysan (Figure 3). Lower liver-to-organ ratios were found for the GalNAc derivative due to higher off-target binding in the pancreas, stomach, heart, muscle, lung, and femur. […] Coinjection of both nonamers with a large excess of N-acetylgalactosamine led to a statistically significant reduction of liver uptake indicating specific interactions of the tracers with their target (Figure 4). As a consequence of the reduced liver uptake also a reduction of the intestinal uptake was observed.
Figure 4 Data (% ID/g) from the blocking experiments using ^68Ga-labeled NODAGA-GalNAc-NonaLysan and NODAGA-NonaLysan in healthy BALB/c mice at 30 min p.i. Blocking was carried out using 27.7 μmol of N-acetylgalactosamine (**p ≤ 0.01; *p ≤ 0.05).

NC(=O)CNC(=O)CNC(=O)[C@H](CCCCNC(=O)CCCCc1cn([C@@H]2O[C@H](CO)[C@H](O)[C@H](O)[C@H]2O)nn1)NC(=O)CNC(=O)CNC(=O)[C@H](CCCCNC(=O)CCCCc1cn([C@@H]2O[C@H](CO)[C@H](O)[C@H](O)[C@H]2O)nn1)NC(=O)CNC(=O)CNC(=O)[C@H](CCCCNC(=O)CCCCc1cn([C@@H]2O[C@H](CO)[C@H](O)[C@H](O)[C@H]2O)nn1)NC(=O)CNC(=O)CNC(=O)[C@H](CCCCNC(=O)CCCCc1cn([C@@H]2O[C@H](CO)[C@H](O)[C@H](O)[C@H]2O)nn1)NC(=O)CNC(=O)CNC(=O)[C@H](CCCCNC(=O)CCCCc1cn([C@@H]2O[C@H](CO)[C@H](O)[C@H](O)[C@H]2O)nn1)NC(=O)CNC(=O)CNC(=O)[C@H](CCCCNC(=O)CCCCc1cn([C@@H]2O[C@H](CO)[C@H](O)[C@H](O)[C@H]2O)nn1)NC(=O)CNC(=O)CNC(=O)[C@H](CCCCNC(=O)CCCCc1cn([C@@H]2O[C@H](CO)[C@H](O)[C@H](O)[C@H]2O)nn1)NC(=O)CNC(=O)CNC(=O)[C@H](CCCCNC(=O)CCCCc1cn([C@@H]2O[C@H](CO)[C@H](O)[C@H](O)[C@H]2O)nn1)NC(=O)CNC(=O)CNC(=O)[C@H](CCCCNC(=O)CCCCc1cn([C@@H]2O[C@H](CO)[C@H](O)[C@H](O)[C@H]2O)nn1)NC(=O)CCCNC(=O)CCC(C(=O)O)N1CCN(CC(=O)O)CCN(CC(=O)O)CC1 (stereo partly shown) [[^68Ga]Ga-NODAGA-NonaLysan, metal not drawn] ({NODAGA-GABA}-K(X1)GGK(X1)GGK(X1)GGK(X1)GGK(X1)GGK(X1)GGK(X1)GGK(X1)GGK(X1)GG-NH2)
complex stability in serum (% intact ligand) ([1]; 2 min): 99.5 ± 0.1%
complex stability in serum (% intact ligand) ([1]; 30 min): 99.5 ± 0.1%
complex stability in serum (% intact ligand) ([1]; 60 min): 99.5 ± 0.1%
complex stability in serum (% intact ligand) ([1]; 120 min): 99.6%
complex stability in PBS (% intact ligand) (complex stability in PBS; 2 min): 99.6%
complex stability in PBS (% intact ligand) (complex stability in PBS; 30 min): 99.4%
complex stability in PBS (% intact ligand) (complex stability in PBS; 60 min): 99.3%
complex stability in PBS (% intact ligand) (complex stability in PBS; 120 min): 99.3%
protein binding (%) ([2]; 120 min): 21.5 ± 3.4%
fraction unbound ([2]; 2 min): 0.847
fraction unbound ([2]; 30 min): 0.717
fraction unbound ([2]; 60 min): 0.737
fraction unbound ([2]; 120 min): 0.813
logD (log D determination): -4.06
tissue uptake at 10 min ([3]; read-out: Blood uptake): 0.4 ± 0.03 %ID/g
tissue uptake at 10 min ([3]; read-out: Femur uptake): 0.3 ± 0.02 %ID/g
tissue uptake at 10 min ([3]; read-out: Heart uptake): 0.4 ± 0.04 %ID/g
tissue uptake at 10 min ([3]; read-out: Intestine uptake): 0.8 ± 0.2 %ID/g
tissue uptake at 10 min ([3]; read-out: Kidneys uptake): 1.2 ± 0.1 %ID/g
tissue uptake at 10 min ([3]; read-out: Liver uptake): 71.2 ± 0.4 %ID/g
tissue uptake at 10 min ([3]; read-out: Lung uptake): 0.9 ± 0.1 %ID/g
tissue uptake at 10 min ([3]; read-out: Muscle uptake): 0.6 ± 0.1 %ID/g
tissue uptake at 10 min ([3]; read-out: Pancreas uptake): 0.8 ± 0.1 %ID/g
tissue uptake at 10 min ([3]; read-out: Spleen uptake): 0.6 ± 0.2 %ID/g
tissue uptake at 10 min ([3]; read-out: Stomach uptake): 0.7 ± 0.2 %ID/g
tissue uptake at 0.5 h ([3]; read-out: Blood uptake): 0.2 ± 0.04 %ID/g
tissue uptake at 0.5 h ([3]; read-out: Femur uptake): 0.3 ± 0.1 %ID/g
tissue uptake at 0.5 h ([3]; read-out: Heart uptake): 0.4 ± 0.04 %ID/g
tissue uptake at 0.5 h ([3]; read-out: Intestine uptake): 5.6 ± 0.2 %ID/g
tissue uptake at 0.5 h ([3]; read-out: Kidneys uptake): 0.8 ± 0.03 %ID/g
tissue uptake at 0.5 h ([3]; read-out: Liver uptake): 79.6 ± 8 %ID/g
tissue uptake at 0.5 h ([3]; read-out: Lung uptake): 0.7 ± 0.1 %ID/g
tissue uptake at 0.5 h ([3]; read-out: Muscle uptake): 0.7 ± 0.03 %ID/g
tissue uptake at 0.5 h ([3]; read-out: Pancreas uptake): 0.9 ± 0.1 %ID/g
tissue uptake at 0.5 h ([3]; read-out: Spleen uptake): 0.2 ± 0.03 %ID/g
tissue uptake at 0.5 h ([3]; read-out: Stomach uptake): 1.2 ± 0.4 %ID/g
tissue uptake at 1 h ([3]; read-out: Blood uptake): 0.2 ± 0.1 %ID/g
tissue uptake at 1 h ([3]; read-out: Femur uptake): 0.2 ± 0.01 %ID/g
tissue uptake at 1 h ([3]; read-out: Heart uptake): 0.5 ± 0.1 %ID/g
tissue uptake at 1 h ([3]; read-out: Intestine uptake): 7.9 ± 0.5 %ID/g
tissue uptake at 1 h ([3]; read-out: Kidneys uptake): 1 ± 0.2 %ID/g
tissue uptake at 1 h ([3]; read-out: Liver uptake): 69.6 ± 1 %ID/g
tissue uptake at 1 h ([3]; read-out: Lung uptake): 0.9 ± 0.1 %ID/g
tissue uptake at 1 h ([3]; read-out: Muscle uptake): 0.6 ± 0.1 %ID/g
tissue uptake at 1 h ([3]; read-out: Pancreas uptake): 1.2 ± 0.2 %ID/g
tissue uptake at 1 h ([3]; read-out: Spleen uptake): 0.5 ± 0.03 %ID/g
tissue uptake at 1 h ([3]; read-out: Stomach uptake): 1.8 ± 1 %ID/g
tissue uptake at 0.5 h (ASGR; read-out: Blood uptake): 0.3 ± 0.2 %ID/g
tissue uptake at 0.5 h (ASGR; read-out: Femur uptake): 0.2 ± 0.01 %ID/g
tissue uptake at 0.5 h (ASGR; read-out: Heart uptake): 0.3 ± 0.03 %ID/g
tissue uptake at 0.5 h (ASGR; read-out: Intestine uptake): 2.2 ± 0.2 %ID/g
tissue uptake at 0.5 h (ASGR; read-out: Kidneys uptake): 2 ± 0.8 %ID/g
tissue uptake at 0.5 h (ASGR; read-out: Liver uptake): 48 ± 1.1 %ID/g
tissue uptake at 0.5 h (ASGR; read-out: Lung uptake): 0.6 ± 0.1 %ID/g
tissue uptake at 0.5 h (ASGR; read-out: Muscle uptake): 0.4 ± 0.04 %ID/g
tissue uptake at 0.5 h (ASGR; read-out: Pancreas uptake): 0.5 ± 0.1 %ID/g
tissue uptake at 0.5 h (ASGR; read-out: Spleen uptake): 0.3 ± 0.2 %ID/g
tissue uptake at 0.5 h (ASGR; read-out: Stomach uptake): 0.9 ± 0.3 %ID/g
